The source made the active and inactive calls.
Experiments:
[1] = MC4R antagonists, dose response, counter-screen for LGR2 antagonist project, cell-based, plate reader, cherry pick (AID 743444); assay type: functional;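 further: transfected HEK 293 cells stimulated with alpha-MSH peptide; potency of inhibitors of the alpha-MSH evoked signal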
[2] = inhibitors of SNCA 5'UTR-driven reporter translation, confirmation, H4 neuroglioma cells, luminescence (AID 1988); assay type: functional, cell-based
[3] = inhibitors of firefly luciferase expression or activity, dose response, H4 neuroglioma cells, luminescence (AID 1990); assay type: functional, cell-based
[4] = HEK293 cell cytotoxicity, dose response, cytotoxicity control, plate reader, cherry-picked samples (AID 743446); assay type: functional, cell-based
[5] = test system: CHO; assay: cytotoxicity in TLR9-MyD88 CHO cells, dose response, cytotoxicity control for TLR9-MyD88 binding inhibitor project, cell-based, luminescence (AID 588339); assay type: functional, hamster; conditions: Cricetulus griseus;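 further: CHO cells stably coexpressing TLR9 and MyD88 fusions from primary screen; compound exposure lasted 48 hours before viability readout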
[6] = target: T1, Delta-type opioid receptor (Homo sapiens, UniProt P41143); assay: HTS Image-Based Screen for Antagonists of the DOR Receptor. [Related pubchem assays (depositor defined):AID1777, AID1785, AID1786, AID2133]; assay type: functional
[7] = non-specific cell cytotoxicity, dose response, cytotoxicity control for PAX8 inhibitor project, plate reader, dry powder samples (AID 743021); assay type: functional, cell-based
[8] = inhibitors of intracellular T. cruzi replication, confirmation, NIH3T3 host cells, beta-gal luminescence (AID 2044); assay type: functional, cell-based;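 further: intracellular parasites grown in NIH/3T3 mouse fibroblasts as host cells; luminescent beta-galactosidase reporter signal from transgenic T. cruzi replicating inside host cells; inhibitors lower the luminescence signal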
[9] = inhibitors of PGC1a acetylation in cells, dose response, cell-based, cherry-picked samples (AID 720514); assay type: functional;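 further: potency may reflect raised or lowered acetylation signal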
[10] = HepG2 cell cytotoxicity, dose response, cytotoxicity control, plate reader, cherry-pick, antagonist series (AID 743416); assay type: functional, cell-based
[11] = target: Beta Lactamase (Pseudomonas aeruginosa, UniProt Q932Y6); assay: beta-lactamase reporter inhibitor potency, dose response, artefact control for TLR9-MyD88 binding inhibitor project, BLA reporter cells, FRET fluorescence (AID 588341); assay type: cell-based;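 further: cell based assay in CHO-K1 cells stably expressing beta-lactamase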
[12] = target: T2, Heat shock factor protein 1 (Mus musculus, UniProt P38532); assay: HSF1 potentiators in luciferase reporter cells, confirmation, cell-based, NIH3T3, luminescence, dose retest (AID 435004); assay type: functional;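 further: stress induced by proteasome inhibitor MG132 added 30 min after compound; luciferase reporter driven by HSF1 response element in NIH3T3 cells; actives raise luminescence as potentiators of the MG132 stress response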
T2 sequence (P38532 whole entry): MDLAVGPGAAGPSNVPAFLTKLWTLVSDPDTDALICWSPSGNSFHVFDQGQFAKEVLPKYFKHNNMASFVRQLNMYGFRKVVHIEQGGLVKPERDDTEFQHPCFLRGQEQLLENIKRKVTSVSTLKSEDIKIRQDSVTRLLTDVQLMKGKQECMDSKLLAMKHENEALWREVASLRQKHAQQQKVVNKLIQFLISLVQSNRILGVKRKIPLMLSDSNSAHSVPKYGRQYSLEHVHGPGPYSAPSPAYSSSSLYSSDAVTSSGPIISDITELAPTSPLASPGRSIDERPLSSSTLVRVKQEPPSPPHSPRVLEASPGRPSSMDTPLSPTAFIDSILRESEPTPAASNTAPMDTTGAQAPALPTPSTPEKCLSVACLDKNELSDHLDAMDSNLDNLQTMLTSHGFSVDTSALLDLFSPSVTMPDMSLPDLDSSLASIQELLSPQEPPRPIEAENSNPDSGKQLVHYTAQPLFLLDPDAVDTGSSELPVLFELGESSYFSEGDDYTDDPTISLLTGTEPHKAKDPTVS

[13] = target: Paired box protein Pax-8 (Homo sapiens, UniProt Q06710); assay: inhibitors of PAX8-driven TPO luciferase reporter, dose response, RMG-I cells, cherry-pick (AID 687027); assay type: functional, cell-based;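 further: luciferase reporter driven by Pax8 target thyroperoxidase promoter measured by SteadyGlo luminescence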
[14] = LGR2 antagonists, dose response, cell-based, HEK293, CRE-luciferase reporter, cherry pick, set 2 (AID 743343); assay type: functional;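 further: transfected cells were stimulated with diluted bursicon conditioned medium after compound addition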
[15] = A549 cell cytotoxicity, dose response, cytotoxicity control, plate reader, cherry-pick, antagonist series (AID 743412); assay type: functional, cell-based
[16] = target: Mu-type opioid receptor (Homo sapiens, UniProt P35372); assay: HTS Image-Based Screen for Agonists of the MOR Receptor. [Related pubchem assays (depositor defined):AID1777, AID1785, AID1786, AID2133]; assay type: functional;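 further: imaging of beta-arrestin GFP recruitment into spots after receptor activation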
[17] = target: T3, Kappa-type opioid receptor (Homo sapiens, UniProt P41145); assay type: functional
[18] = target: Beta-galactosidase (Escherichia coli, UniProt Q8VNN2); assay type: functional
[19] = target: T3, Kappa-type opioid receptor; assay type: functional; remark: listed apart in the source
[20] = target: T1, Delta-type opioid receptor; assay: HTS Image-Based Screen for Agonists of the DOR Receptor. [Related pubchem assays (depositor defined):AID1777, AID1786, AID2133]; assay type: functional
[21] = cytotoxicity toward NIH3T3 fibroblasts, dose response, counter-screen, cell-based, ATP luminescence, mouse fibroblasts (AID 2010); assay type: functional;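 further: cells exposed to compound for about 90 hours before reading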
[22] = Counterscreen for AddAB inhibitors: absorbance-based bacterial cell-based high throughput dose response assay for inhibitors of bacterial viability. [Related pubchem assays (depositor defined):AID435030, AID449728, AID449731, AID488942, AID488955, AID488956]; assay type: functional
[23] = target: Exodeoxyribonuclease V (Escherichia coli (strain K12), UniProt P04993+P07648+P08394); assay: E. coli RecBCD inhibitors, dose response, counter-screen for AddAB inhibitor project, absorbance, V66 E. coli, mutant T4 phage (AID 492957); assay type: functional, cell-based, Escherichia coli str. K-12 substr. MG1655
[24] = human group III sPLA2 inhibitors, dose response, biochemical, QFRET, IC50 (AID 743457);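 further: green fluorescence rise as the enzyme cleaves BODIPY PC-A2 in liposomes; potency for inhibition of the enzyme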
[25] = test system: H9c2; assay: cells; assay type: functional, cell-based; conditions: Rattus norvegicus, H9c2, Myocardium;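 further: confirmatory concentration-response retest of ultra-high-throughput screening hits for modulation of myocardial damage; cell death induced by hydrogen peroxide oxidative stress; compound pretreatment for 60 min then peroxide exposure for 2 h; potency is for protecting the cells against peroxide damage rather than for killing them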
[26] = target: Heat shock protein HSP 90-alpha (Homo sapiens, UniProt P07900); assay type: functional, organism-based
[27] = test system: INS1; assay: beta cell apoptosis inhibitors, cytokine rescue, dose response, luminescence, retest (AID 449756); assay type: functional, cell-based; conditions: Rattus norvegicus;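 further: cell death triggered by IL-1 beta plus TNF-alpha plus IFN-gamma mixture; protective hits raise ATP signal compared with cytokine alone wells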
[28] = target: T4, Tyrosine-protein phosphatase non-receptor type 22 (Homo sapiens, UniProt Q9Y2R2); assay type: functional
T4 sequence (Q9Y2R2 whole entry): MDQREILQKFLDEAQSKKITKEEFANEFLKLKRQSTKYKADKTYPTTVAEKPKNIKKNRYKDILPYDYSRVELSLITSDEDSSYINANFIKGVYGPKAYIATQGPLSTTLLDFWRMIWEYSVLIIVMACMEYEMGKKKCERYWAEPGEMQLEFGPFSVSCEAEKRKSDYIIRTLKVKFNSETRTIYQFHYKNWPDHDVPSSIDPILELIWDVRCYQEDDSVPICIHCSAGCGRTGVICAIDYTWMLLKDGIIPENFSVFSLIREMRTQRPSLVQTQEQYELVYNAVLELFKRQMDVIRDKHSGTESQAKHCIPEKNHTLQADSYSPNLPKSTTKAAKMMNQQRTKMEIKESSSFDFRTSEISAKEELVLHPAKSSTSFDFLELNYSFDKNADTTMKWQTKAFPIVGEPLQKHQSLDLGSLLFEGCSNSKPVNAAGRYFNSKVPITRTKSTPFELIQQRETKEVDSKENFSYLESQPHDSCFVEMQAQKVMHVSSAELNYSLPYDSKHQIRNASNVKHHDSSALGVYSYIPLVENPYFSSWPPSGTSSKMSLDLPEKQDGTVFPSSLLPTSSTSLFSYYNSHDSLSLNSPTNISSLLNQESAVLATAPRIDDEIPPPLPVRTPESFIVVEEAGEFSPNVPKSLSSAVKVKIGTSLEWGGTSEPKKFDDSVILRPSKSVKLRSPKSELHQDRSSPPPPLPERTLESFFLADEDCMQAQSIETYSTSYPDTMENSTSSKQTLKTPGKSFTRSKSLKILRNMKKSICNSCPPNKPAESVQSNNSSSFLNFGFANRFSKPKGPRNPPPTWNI

[29] = target: T4, Tyrosine-protein phosphatase non-receptor type 22; assay type: functional; remark: listed apart in the source
[30] = target: T5, Tyrosine-protein phosphatase non-receptor type 7 (Homo sapiens, UniProt P35236); assay type: functional
T5 sequence (P35236 whole entry): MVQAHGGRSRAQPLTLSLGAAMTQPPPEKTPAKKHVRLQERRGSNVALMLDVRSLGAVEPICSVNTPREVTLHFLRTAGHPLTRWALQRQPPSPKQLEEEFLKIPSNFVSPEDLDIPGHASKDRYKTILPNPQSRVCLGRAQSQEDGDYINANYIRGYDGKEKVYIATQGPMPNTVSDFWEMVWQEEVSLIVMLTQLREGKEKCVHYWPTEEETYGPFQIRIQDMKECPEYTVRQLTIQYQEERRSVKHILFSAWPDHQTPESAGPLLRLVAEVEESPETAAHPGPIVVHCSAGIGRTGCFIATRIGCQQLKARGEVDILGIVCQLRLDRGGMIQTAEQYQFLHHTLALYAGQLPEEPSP

[31] = Luminescent dose response cell-based high throughput screening assay for inhibitors of the Janus kinase 2 mutant JAK2V617F. [Related pubchem assays: 1446 (Primary screen.), 1521 (Confirmation assay.), 1486 (Counter screen.)]; assay type: functional
[32] = Luminescence Cell-Based Dose Response HTS to Identify Inhibitors of 5'UTR Stem-Loop Driven Prion Protein mRNA Translation in H4 Neuroglioblastoma Cells. [Related pubchem assays: 1827 (Project Summary), 1813 (Primary HTS)]; assay type: functional
[33] = target: Phospholipase A2 (Homo sapiens, UniProt P04054); assay type: functional;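 further: confirmatory dose-response counterscreen on phospholipase A2, testing hits that came from an ultra-high-throughput screen for ATG4B inhibitors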
[34] = target: T6, Cysteine protease ATG4B (Homo sapiens, UniProt Q9Y4P1); assay type: functional;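 further: Fluorescence-based dose-response confirmation assay measuring inhibition of ATG4B activity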
T6 sequence (Q9Y4P1 whole entry): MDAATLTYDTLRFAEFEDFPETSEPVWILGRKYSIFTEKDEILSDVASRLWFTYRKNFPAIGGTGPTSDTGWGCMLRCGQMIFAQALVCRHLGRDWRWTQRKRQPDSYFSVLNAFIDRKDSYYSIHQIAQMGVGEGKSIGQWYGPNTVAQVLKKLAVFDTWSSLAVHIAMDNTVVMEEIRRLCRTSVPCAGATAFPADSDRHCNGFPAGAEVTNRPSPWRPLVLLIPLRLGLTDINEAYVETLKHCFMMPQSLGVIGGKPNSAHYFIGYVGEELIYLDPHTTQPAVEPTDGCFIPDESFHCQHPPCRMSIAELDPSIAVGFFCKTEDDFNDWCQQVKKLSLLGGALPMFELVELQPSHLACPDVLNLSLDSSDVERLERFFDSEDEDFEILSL

[35] = Luminescence Cell-Based Dose Retest to Confirm Inhibitors of Cancer Stem Cells. [Related pubchem assays (depositor defined):AID2717, AID2721]; assay type: functional; conditions: Homo sapiens

T3 sequence (P41145 whole entry): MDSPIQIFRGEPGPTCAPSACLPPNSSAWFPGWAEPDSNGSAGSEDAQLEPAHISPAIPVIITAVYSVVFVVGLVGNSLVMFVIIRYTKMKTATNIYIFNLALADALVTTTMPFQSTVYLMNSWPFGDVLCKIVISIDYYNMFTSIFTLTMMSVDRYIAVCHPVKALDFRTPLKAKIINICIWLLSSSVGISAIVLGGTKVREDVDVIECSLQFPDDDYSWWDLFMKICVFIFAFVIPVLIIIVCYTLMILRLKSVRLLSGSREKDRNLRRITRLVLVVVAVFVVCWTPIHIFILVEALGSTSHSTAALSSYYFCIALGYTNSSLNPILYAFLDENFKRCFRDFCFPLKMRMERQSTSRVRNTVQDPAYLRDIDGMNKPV
T1 sequence (P41143 whole entry): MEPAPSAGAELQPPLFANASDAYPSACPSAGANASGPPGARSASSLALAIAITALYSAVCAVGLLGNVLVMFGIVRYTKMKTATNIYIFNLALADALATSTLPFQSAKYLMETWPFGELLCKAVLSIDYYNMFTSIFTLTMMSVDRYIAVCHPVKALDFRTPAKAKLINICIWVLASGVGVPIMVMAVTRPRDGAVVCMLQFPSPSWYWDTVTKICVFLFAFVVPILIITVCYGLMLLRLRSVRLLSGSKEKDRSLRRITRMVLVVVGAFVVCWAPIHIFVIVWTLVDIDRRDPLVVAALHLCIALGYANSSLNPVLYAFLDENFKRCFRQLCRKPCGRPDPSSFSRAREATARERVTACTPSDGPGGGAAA
Exodeoxyribonuclease V, sequence (P04993 whole entry): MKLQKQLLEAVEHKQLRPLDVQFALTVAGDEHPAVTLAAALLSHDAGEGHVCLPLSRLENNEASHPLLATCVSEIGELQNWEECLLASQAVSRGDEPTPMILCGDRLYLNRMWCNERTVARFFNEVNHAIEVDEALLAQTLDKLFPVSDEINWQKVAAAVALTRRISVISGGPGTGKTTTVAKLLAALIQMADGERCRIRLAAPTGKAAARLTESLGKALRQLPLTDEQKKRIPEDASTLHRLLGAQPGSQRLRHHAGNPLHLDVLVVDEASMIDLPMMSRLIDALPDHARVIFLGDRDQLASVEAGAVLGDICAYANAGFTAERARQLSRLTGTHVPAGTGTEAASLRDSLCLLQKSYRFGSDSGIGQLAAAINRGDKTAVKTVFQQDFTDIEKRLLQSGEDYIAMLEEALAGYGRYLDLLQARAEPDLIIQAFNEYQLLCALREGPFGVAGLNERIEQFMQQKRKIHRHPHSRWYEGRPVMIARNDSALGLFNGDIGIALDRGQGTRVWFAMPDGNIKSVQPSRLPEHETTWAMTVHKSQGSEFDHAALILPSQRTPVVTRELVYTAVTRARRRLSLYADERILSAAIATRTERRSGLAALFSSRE
Exodeoxyribonuclease V, sequence (P07648 whole entry): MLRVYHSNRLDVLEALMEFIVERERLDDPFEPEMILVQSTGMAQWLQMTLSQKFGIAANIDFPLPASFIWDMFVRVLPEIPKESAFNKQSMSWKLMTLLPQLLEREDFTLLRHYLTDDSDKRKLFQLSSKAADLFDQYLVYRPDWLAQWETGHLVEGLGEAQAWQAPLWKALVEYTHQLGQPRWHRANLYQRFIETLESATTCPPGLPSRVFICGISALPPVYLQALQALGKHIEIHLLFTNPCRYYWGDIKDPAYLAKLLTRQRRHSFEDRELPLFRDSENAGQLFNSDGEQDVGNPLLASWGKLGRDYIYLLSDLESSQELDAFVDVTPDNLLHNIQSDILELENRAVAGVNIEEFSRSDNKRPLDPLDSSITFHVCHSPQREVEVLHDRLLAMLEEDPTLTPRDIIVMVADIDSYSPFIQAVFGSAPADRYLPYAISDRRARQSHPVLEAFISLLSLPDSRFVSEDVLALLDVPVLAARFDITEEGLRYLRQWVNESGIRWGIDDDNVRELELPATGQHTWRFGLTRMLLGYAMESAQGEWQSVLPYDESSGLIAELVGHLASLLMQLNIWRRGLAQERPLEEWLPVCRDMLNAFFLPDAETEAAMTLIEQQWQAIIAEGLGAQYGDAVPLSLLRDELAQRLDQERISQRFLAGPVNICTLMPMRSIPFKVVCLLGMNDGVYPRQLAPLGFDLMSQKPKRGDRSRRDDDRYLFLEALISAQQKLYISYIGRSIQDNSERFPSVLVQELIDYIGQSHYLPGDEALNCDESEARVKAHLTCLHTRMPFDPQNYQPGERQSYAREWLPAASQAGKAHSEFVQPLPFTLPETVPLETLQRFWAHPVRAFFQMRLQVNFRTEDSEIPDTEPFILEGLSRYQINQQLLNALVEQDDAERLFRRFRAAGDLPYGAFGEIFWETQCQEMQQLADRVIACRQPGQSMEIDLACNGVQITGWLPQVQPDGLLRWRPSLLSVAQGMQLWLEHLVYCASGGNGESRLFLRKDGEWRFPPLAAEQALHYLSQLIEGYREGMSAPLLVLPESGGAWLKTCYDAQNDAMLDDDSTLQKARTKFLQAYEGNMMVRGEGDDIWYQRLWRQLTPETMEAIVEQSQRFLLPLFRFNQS
Exodeoxyribonuclease V, sequence (P08394 whole entry): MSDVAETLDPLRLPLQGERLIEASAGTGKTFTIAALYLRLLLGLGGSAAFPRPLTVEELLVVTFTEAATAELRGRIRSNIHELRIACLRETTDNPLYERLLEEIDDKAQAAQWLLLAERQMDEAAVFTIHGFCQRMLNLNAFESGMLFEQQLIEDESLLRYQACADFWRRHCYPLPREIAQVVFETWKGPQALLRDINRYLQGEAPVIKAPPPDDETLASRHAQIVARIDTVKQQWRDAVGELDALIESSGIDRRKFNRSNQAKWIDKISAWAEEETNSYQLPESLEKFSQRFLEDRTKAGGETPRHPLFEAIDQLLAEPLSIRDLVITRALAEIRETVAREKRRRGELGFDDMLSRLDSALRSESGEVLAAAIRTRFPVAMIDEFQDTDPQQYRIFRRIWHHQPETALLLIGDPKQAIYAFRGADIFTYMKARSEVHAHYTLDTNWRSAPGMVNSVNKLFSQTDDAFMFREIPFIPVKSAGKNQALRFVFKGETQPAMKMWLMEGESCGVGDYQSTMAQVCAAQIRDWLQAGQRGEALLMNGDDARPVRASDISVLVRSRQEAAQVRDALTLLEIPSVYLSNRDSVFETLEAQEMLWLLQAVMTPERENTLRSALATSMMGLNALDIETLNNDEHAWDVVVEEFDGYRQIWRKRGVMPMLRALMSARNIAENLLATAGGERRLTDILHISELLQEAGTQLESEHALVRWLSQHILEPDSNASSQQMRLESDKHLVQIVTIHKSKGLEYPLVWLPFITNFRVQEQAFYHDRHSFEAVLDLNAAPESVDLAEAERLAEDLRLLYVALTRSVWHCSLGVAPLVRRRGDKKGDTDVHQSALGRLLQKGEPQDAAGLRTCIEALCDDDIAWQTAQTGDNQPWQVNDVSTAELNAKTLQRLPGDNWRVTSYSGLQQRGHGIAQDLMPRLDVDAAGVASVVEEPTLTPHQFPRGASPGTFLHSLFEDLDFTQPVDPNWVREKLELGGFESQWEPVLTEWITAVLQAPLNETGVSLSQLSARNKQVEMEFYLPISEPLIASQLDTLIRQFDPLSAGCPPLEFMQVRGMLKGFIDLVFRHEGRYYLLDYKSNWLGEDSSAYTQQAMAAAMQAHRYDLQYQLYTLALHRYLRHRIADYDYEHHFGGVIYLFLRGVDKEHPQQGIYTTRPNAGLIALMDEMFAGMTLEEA
Beta Lactamase, sequence (Q932Y6 whole entry): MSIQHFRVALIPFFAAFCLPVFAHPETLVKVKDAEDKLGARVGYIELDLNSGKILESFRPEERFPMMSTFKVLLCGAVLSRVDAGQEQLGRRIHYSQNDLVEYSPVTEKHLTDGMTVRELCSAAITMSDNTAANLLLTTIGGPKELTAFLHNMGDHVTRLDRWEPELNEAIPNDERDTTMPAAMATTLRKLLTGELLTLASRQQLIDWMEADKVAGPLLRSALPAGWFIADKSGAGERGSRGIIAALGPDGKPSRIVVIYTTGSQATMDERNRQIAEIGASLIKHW
Paired box protein Pax-8, sequence (Q06710 whole entry): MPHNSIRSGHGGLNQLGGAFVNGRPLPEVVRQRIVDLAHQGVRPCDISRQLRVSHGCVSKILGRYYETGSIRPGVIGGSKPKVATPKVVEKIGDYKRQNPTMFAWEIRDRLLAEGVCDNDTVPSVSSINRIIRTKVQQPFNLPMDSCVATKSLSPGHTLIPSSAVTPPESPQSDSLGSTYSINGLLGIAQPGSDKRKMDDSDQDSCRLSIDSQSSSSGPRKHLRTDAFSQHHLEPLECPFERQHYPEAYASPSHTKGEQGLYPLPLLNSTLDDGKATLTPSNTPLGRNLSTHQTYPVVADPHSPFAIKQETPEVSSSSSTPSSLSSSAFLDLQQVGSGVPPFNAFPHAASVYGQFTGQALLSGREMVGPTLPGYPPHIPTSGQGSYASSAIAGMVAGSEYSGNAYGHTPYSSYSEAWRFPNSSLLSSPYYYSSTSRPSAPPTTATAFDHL
Phospholipase A2, sequence (P04054 whole entry): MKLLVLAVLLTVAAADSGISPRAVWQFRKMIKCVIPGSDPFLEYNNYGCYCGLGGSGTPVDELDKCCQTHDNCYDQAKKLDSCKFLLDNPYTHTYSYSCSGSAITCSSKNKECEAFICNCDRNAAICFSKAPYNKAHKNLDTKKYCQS
Mu-type opioid receptor, sequence (P35372 whole entry): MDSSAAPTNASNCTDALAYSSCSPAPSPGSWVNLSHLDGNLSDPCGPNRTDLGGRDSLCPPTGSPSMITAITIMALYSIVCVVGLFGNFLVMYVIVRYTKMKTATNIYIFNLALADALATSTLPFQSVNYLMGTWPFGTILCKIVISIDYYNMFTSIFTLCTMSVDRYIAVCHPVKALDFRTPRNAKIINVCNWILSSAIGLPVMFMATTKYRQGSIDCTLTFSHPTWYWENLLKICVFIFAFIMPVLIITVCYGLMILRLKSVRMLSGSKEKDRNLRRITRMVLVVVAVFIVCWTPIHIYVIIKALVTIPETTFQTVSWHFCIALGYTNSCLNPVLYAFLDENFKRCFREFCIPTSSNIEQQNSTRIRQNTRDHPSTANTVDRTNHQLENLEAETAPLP

In the case of `S=c1sc2c(Cl)ncnc2n1-c1ccccc1`, the AC50 [1] is reported as 24.5 µM (active), the EC50 [2] is reported as 7.71 µM (active) and the EC50 [3] is reported as 8.14 µM (active). The AC50 [4] was 8.88 µM (active), the IC50 [5] was 9.35 µM (active) and the IC50 [6] was 4.7 µM (active). For the same compound, the AC50 [7] was 60.6 µM (active), the EC50 [8] was 2.26 µM (active) and the AC50 [9] was 2.79 µM (active). For the same compound, the AC50 [10] was 13.2 µM (active), the IC50 [11] was > 49.7 µM (inactive) and the EC50 [12] was 17.6 µM (active). The AC50 [13] was 7.52 µM (active), the AC50 [14] was 17.8 µM (active) and the AC50 [15] was 8.81 µM (active). The EC50 [16] was > 32 µM (inactive), the IC50 [17] was 3.55 µM and the EC50 [18] was > 31.5 µM (inactive). For the same compound, the IC50 [19] was 7.27 µM (active), the EC50 [20] was > 32 µM (inactive) and the EC50 [21] was 14.4 µM (active).

In the case of `Cc1onc(-c2ccccc2)c1C(=O)NC(=S)NNC(=O)c1ccccc1O`, the IC50 [22] is reported as > 119 µM (inactive), the IC50 [23] is reported as > 119 µM (inactive) and the IC50 [24] is reported as > 122 µM (inactive). For the same compound, the IC50 [25] was > 79 µM (inactive), the AC50 [26] was 2.92 µM (active) and the AC50 [27] was 7.21 µM (active).

In the case of `NC(=O)Nc1ccccc1C(=O)NCCc1ccccc1`, the IC50 [28] is reported as > 79.4 µM (inactive), the IC50 [29] is reported as > 79.4 µM (inactive) and the IC50 [30] is reported as > 79.4 µM (inactive).

For `COc1ccc(N(CC(=O)NC(C)C)C(=O)CCC(=O)Nc2ccccn2)cc1`, the IC50 [28] was > 79.4 µM (inactive), the IC50 [29] was > 79.4 µM (inactive) and the IC50 [30] was > 79.4 µM (inactive).

With `COc1cccc(/C=N/NC(=O)c2[nH]c(C)c(C(=O)N/N=C/c3cccc(OC)c3O)c2C)c1O` the EC50 [2] was 15.3 µM (active), the EC50 [3] was 9.94 µM (active) and the IC50 [31] was 2.8 µM (active). The IC50 [22] was > 119 µM (inactive), the EC50 [32] was 18.9 µM (active) and the IC50 [23] was > 119 µM (inactive). For the same compound, the IC50 [33] was 9.88 µM (active), the IC50 [34] was 7.03 µM (active) and the AC50 [35] was 2.44 µM (active).
